Consider 16 compounds from patent US8779156B2, “Analogues for the treatment or prevention of flavivirus infections” (Vertex Pharmaceuticals Incorporated, priority 2010, dated 2014).

In this test the test system is HCV (1b) replicon, Huh-ET cells. Description: Cell-based luciferase reporter HCV (1b) RNA replication assay. The note with it: Hepatitis C virus, 96 h; HCV 1b replicon, luciferase, 4 days incubation; read-out: EC50_1b. The source says:
Cell-Based Luciferase Reporter HCV (Ib) RNA Replication Assay Cell Culture
Replicon cell lines Huh-5.2 are derived from the Huh-7 hepatocarcinoma cell line are maintained in culture as generally described in Krieger, N; Lohmann, V; Bartenschlager, R. Enhancement of hepatitis C virus RNA replication by cell culture-adaptive mutations. J. Virol. 2001, 75, 4614-4624. The Huh-5.2 cells contain the highly cell culture-adapted replicon I389luc-ubi-neo/NS3-375.1 construct that carries, in addition to the neomycin gene, an integrated copy to the firefly luciferase gene (Krieger, N; Lohmann, V; Bartenschlager, R. Enhancement of hepatitis C virus RNA replication by cell culture-adaptive mutations. J. Virol. 2001, 75, 4614-4624). This cell line allows measurement of HCV RNA replication and translation by measuring luciferase activity. It has been previously shown that the luciferase activity tightly follows the replicon RNA level in these cells (Krieger, N; Lohmann, V; Bartenschlager, R. Enhancement of hepatitis C virus RNA replication by cell culture-adaptive mutations. J. Virol. 2001, 75, 4614-4624). The Huh-ET cell line has the same features as those mentioned for Huh-5.2 cell line, except that ET cells are more robust and contain an adaptative mutation in the HCV NS4B gene instead of NS5A. Both cell lines are maintained in cultures at a sub-confluent level (<85%) as the level of replicon RNA is highest in actively proliferating cells. The culture media used for cell passaging consist of DMEM (Gibco BRL Laboratories, Mississauga, ON, Canada) supplemented with 10% foetal bovine serum with 1% penicilin/streptomycin, 1% glutamine, 1% sodium pyruvate, 1% non-essential amino acids, and 180 μg/ml of G418 final concentration. Cells are incubated at 37° C., in an atmosphere of 5% CO2 and passaged twice a week to maintain sub-confluence.
Approximately 3000 viable Huh-ET cells (100 μl) are plated per well in a white opaque 96-well microtiter plate. The cell culture media used for the assay is the same as described above except that it contains no G418 and no phenol red. After an incubation period of 3-4 hours at 37° C. in a 5% CO2 incubator, compounds (100 μl) are added at various concentrations. Cells are then further incubated for 4 days at 37° C. in a 5% CO2 incubator. Thereafter, the culture media is removed and cells are lysed by the addition of 95 μL of the luciferase buffer (luciferin substrate in buffered detergent). Cell lysates are incubated at room temperature and protected from direct light for at least 10 minutes. Plates are read for luciferase counts using a luminometer (Wallac MicroBeta Trilux, Perkin Elmer™, MA, USA).
Curves are fitted to data points using nonlinear regression analysis, and IC50s are interpolated from the resulting curve using GraphPad Prism software, version 2.0 (GraphPad Software Inc., San Diego, Calif., USA).
On the technique in general: In a reporter assay the amount or activity of a reporter protein is the signal.

For `COC(=O)N[C@H](C(=O)N1C[C@@H](C)C[C@H]1c1ncc(-c2ccc(-c3ccc(-c4ccc5[nH]c([C@@H]6C[C@H](C)CN6C(=O)[C@H](C(C)C)N(C)C(=O)OC)nc5c4)cc3)cc2)[nH]1)C(C)C` [Compound 7, ((S)-1-{(2S,4S)-2-[5-(4′-{2-[(2S,4S)-1-((S)-2-Methoxycarbonylamino-3-methyl-butyryl)-4-methyl-pyrrolidin-2-yl]-1H-imidazol-4-yl}-biphenyl-4-yl)-1H-benzoimidazol-2-yl]-4-methyl-pyrrolidine-1-carbonyl}-2-methyl-propyl)-methyl-carbamic acid methyl ester], the EC50 was at most 5 nM.
`COC(=O)N[C@H](C(=O)N1C[C@@H](C)C[C@H]1c1nc(-c2ccc(-c3ccc4nc([C@@H]5C[C@H](C)CN5C(=O)[C@@H](NC(=O)OC)C(C)C)[nH]c4c3)cc2)c(-c2cc3sccc3s2)[nH]1)C(C)C` [Compound 26]: the EC50 is at most 5 nM.
As for `COC(=O)N[C@H](C(=O)N1C[C@@H](C)C[C@H]1c1nc(-c2cc3sc(-c4ccc5[nH]c([C@@H]6C[C@H](C)CN6C(=O)[C@H](C(C)C)N6CCOC6=O)nc5c4)cc3s2)c[nH]1)C(C)C` [Compound 40], the figure is at most 5 nM.
In the case of `COC(=O)N[C@H](C(=O)N1C[C@@H](C)C[C@H]1c1nc(C)c(-c2ccc(-c3ccc(-c4ccc5[nH]c([C@@H]6C[C@H](C)CN6C(=O)[C@@H](NC(=O)OC)C(C)C)nc5c4)cc3)cc2)[nH]1)C(C)C` [Compound 15, Methyl N-[(1S)-1-[(2S,4S)-2-[5-[4-[4-[2-[(2S,4S)-1-[(2S)-2-(methoxycarbonylamino)-3-methyl-butanoyl]-4-methyl-pyrrolidin-2-yl]-1H-benzimidazol-5-yl]phenyl]phenyl]-4-methyl-1H-imidazol-2-yl]-4-methyl-pyrrolidine-1-carbonyl]-2-methyl-propyl]carbamate], the EC50 was at most 5 nM.
As for `COC(=O)N[C@H](C(=O)N1C[C@@H](C)C[C@H]1c1nc2cc(-c3ccc(-c4ccc(-c5c[nH]c([C@@H]6C[C@H](C)CN6)n5)cc4)cc3)ccc2[nH]1)C(C)C` [Compound 51], the EC50 was at most 5 nM.
As for `CC[C@H]1C[C@@H](c2nc(-c3ccc(-c4ccc(-c5ccc6[nH]c([C@@H]7C[C@H](CC)CN7C(=O)[C@@H](NC(=O)OC)C(C)C)nc6c5)cc4)cc3)c[nH]2)N(C(=O)[C@@H](NC(=O)OC)C(C)C)C1` [Compound 17], the EC50 is at most 5 nM.
`COC(=O)N[C@H](C(=O)N1C[C@@H](C)C[C@H]1c1nc(-c2ccc(-c3ccc(-c4ccc5[nH]c([C@@H]6C[C@H](C)CN6C(=O)[C@@H](NC(=O)OC)C(C)C)nc5c4)s3)cc2)c[nH]1)C(C)C` [Compound 27]: the EC50 was at most 5 nM.
`O=C(OCc1ccccc1)N1CCCC1c1ncc(-c2ccc(C#Cc3ccc4[nH]c(C5CCCCN5C(=O)OCc5ccccc5)nc4c3)cc2)[nH]1` (stereo not shown) [Compound 1]: the EC50 was 5 to 5000 nM.
For the compound `COC(=O)N[C@H](C(=O)N1C[C@@H](C)C[C@H]1c1nc(-c2ccc(-c3ccc(-c4ccc5[nH]c([C@@H]6C[C@H](C)CN6C(=O)[C@@H](NC(=O)OC)C(C)C)nc5c4)c4c3OCO4)cc2)c[nH]1)C(C)C` [Compound 30], the EC50 is at most 5 nM.
As to `COC(=O)N[C@H](C(=O)N1C[C@@H](C)C[C@H]1c1nc(-c2cc3sc(-c4ccc5[nH]c([C@@H]6C[C@H](C)CN6C(=O)[C@@H](NC(=O)OC)C(C)C)nc5c4)cc3s2)c[nH]1)C(C)C` [Compound 16, Methyl N-[(1S)-1-[(2S,4S)-2-[4-[5-[2-[(2S,4S)-1-[(2S)-2-(methoxycarbonylamino)-3-methyl-butanoyl]-4-methyl-pyrrolidin-2-yl]-1H-benzimidazol-5-yl]thieno[3,2-b]thiophen-2-yl]-1H-imidazol-2-yl]-4-methyl-pyrrolidine-1-carbonyl]-2-methyl-propyl]carbamate], the EC50 was at most 5 nM.
On to `COC(=O)N[C@H](C(=O)N1C[C@@H](C)C[C@H]1c1nc(-c2ccc(-c3ccc(-c4cc5nc([C@@H]6C[C@H](C)CN6C(=O)[C@@H](NC(=O)OC)C(C)C)[nH]c5cc4C)cc3)cc2)c[nH]1)C(C)C` [Compound 35], for which the EC50 was at most 5 nM.
Regarding `COC(=O)N[C@H](C(=O)N1CCC[C@H]1c1nc(-c2ccc(-c3ccc4[nH]c([C@@H]5CCCN5C(=O)[C@@H](NC(=O)OC)C(C)C)nc4c3)cc2)c[nH]1)C(C)C` [Compound 3, Methyl N-[(1S)-1-[(2S)-2-[4-[4-[2-[(2S)-1-[(2S)-2-(methoxycarbonylamino)-3-methyl-butanoyl]pyrrolidin-2-yl]-1H-benzimidazol-5-yl]phenyl]-1H-imidazol-2-yl]pyrrolidine-1-carbonyl]-2-methyl-propyl]carbamate], the EC50 is at most 5 nM.
With `COC(=O)N[C@H](C(=O)N1C[C@@H](C)CC1c1nc2cc(-c3ccc4nc(-c5c[nH]c([C@@H]6C[C@H](C)CN6C(=O)[C@@H](NC(=O)OC)C(C)C)n5)cn4c3)ccc2[nH]1)C(C)C` (stereo partly shown) [Compound 42], the EC50 was 5 to 5000 nM.
With `COC(=O)N[C@H](C(=O)N1C[C@@H](C)C[C@H]1c1nc(-c2ccc(C#Cc3ccc4[nH]c([C@@H]5C[C@H](C)CN5C(=O)[C@@H](NC(=O)OC)C(C)C)nc4c3)cc2)c[nH]1)C(C)C` [Compound 9, Methyl N-[(1S)-1-[(2S,4S)-2-[4-[4-[2-[2-[(2S,4S)-1-[(2S)-2-(methoxycarbonylamino)-3-methyl-butanoyl]-4-methyl-pyrrolidin-2-yl]-1H-benzimidazol-5-yl]ethynyl]phenyl]-1H-imidazol-2-yl]-4-methyl-pyrrolidine-1-carbonyl]-2-methyl-propyl]carbamate], the EC50 is at most 5 nM.
Turning to `COC(=O)N[C@H](C(=O)N1C[C@@H](C)CC1c1nc2cc(C#Cc3ccc(C#Cc4cnc([C@@H]5C[C@H](C)CN5C(=O)[C@@H](NC(=O)OC)C(C)C)[nH]4)cc3)ccc2[nH]1)C(C)C` (stereo partly shown) [Compound 29], the EC50 was at most 5 nM.
With `COC(=O)N[C@H](C(=O)N1C[C@@H](C)C[C@H]1c1nc2cc(-c3ccc(-c4ccc(-c5cnc([C@@H]6C[C@H](C)CN6C(=O)[C@H](C(C)C)N(C)C(=O)OC)[nH]5)cc4)cc3)ccc2[nH]1)C(C)C` [Compound 8, Methyl ((S)-1-((2S,4S)-2-(4-(4′-(2-((2S,4S)-1-((S)-2-((methoxycarbonyl)amino)-3-methylbutanoyl)-4-methylpyrrolidin-2-yl)-3H-benzo[d]imidazol-6-yl)-[1,1′-biphenyl]-4-yl)-1H-imidazol-2-yl)-4-methylpyrrolidin-1-yl)-3-methyl-1-oxobutan-2-yl)(methyl)carbamate], the EC50 was at most 5 nM.
